Laboratory results taken from BigSolDB 2.1.

CC(C)(Oc1ccc(CCNC(=O)c2ccc(Cl)cc2)cc1)C(=O)O
solubility (mole fraction)
Conditions	283.15 K	288.15 K	293.15 K	298.15 K	303.15 K	308.15 K	313.15 K	318.15 K	323.15 K
in ethanol	0.00223	0.00271	0.00332	0.00402	0.00482	0.00571	0.00689	0.00815	0.00977
in isopropanol	0.00152	0.00189	0.00237	0.00307	0.00384	0.00476	0.00563	0.00689	0.00832
in methanol	0.0019	0.00228	0.00283	0.00343	0.0043	0.00526	0.00648	0.00791	0.00948
in n-propanol	0.00246	0.00297	0.00361	0.00437	0.00524	0.00631	0.00743	0.0088	0.0101
in water	1.23e-06	1.58e-06	2.01e-06	2.56e-06	3.29e-06	4.13e-06	5.13e-06	6.3e-06	7.83e-06
